Experiments:
human cadaver skin = assay: Removal of epidermis/keratinocytes from human cadaver skin by enzyme or salt incubation
Excerpt: Alternatively, enzymes may be used to accomplish decellularization, including but not limited to dispase II, trypsin, and thermolysin. These enzymes react with different components of collagen and intercellular connections in achieving their effects. Dispase II attacks Type IV collagen, which is a component of the lamina densa and anchoring fibrils of the basement membrane. Thermolysin attacks the bulbous phemphigoid antigen in the hemidesmosome of the basal layer of keratinocytes. Trypsin attacks the desmosome complex between cells. Due to the proteolytic nature of these enzymes, care must be taken that cellular removal occurs without significant damage to the extracellular matrix, including the basement membrane complex. This is a function of concentration, time and temperature. If used for too long a time or at too high a concentration, dispase II for example can completely remove the basement membrane complex from the dermis.

porcine skin = assay: Separation of epidermis and dermis of porcine skin by salt incubation; conditions: 1 molar, 48 hours

Row | removal of keratinocytes (human cadaver skin; 200 ug/ml, 30 minutes, 4° C., human cadaver skin) | Molecule | separation of the epidermis and dermis (human cadaver skin; 1 molar, 16 hours, human skin) | separation of the epidermis and dermis (porcine skin)
1 |  | [Cl-].[Na+] [sodium chloride] | clean separation of the epidermis and dermis without damage to the basement membrane complex | clean separation of the epidermis and dermis without damage to the basement membrane complex
2 | essentially remove all keratinocytes | Thermolysin: enzyme used for decellularization; attacks the bulbous phemphigoid antigen in the hemidesmosome (protein, UniProt P00800 233-548, looked up) Thermolysin: ITGTSTVGVGRGVLGDQKNINTTYSTYYYLQDNTRGNGIFTYDAKYRTTLPGSLWADADNQFFASYDAPAVDAHYYAGVTYDYYKNVHNRLSYDGNNAAIRSSVHYSQGYNNAFWNGSQMVYGDGDGQTFIPLSGGIDVVAHELTHAVTDYTAGLIYQNESGAINEAISDIFGTLVEFYANKNPDWEIGEDVYTPGISGDSLRSMSDPAKYGDPDHYSKRYTGTQDNGGVHINSGIINKAAYLISQGGTHYGVSVVGIGRDKLGKIFYRALTQYLTPTSNFSQLRAAAVQSATDLYGSTSQEVASVKQAFDAVGVK |  | 

Source: patent publication US20030035843A1, “Method for processing and preserving collagen-based tissues for transplantation” (LifeCell Corporation, a Delaware corporation, priority 1990, published 2003)
